Experimental data taken from US20170008927A1, “ARTIFICIAL CATALYST SYSTEM SUBSTITUTABLE FOR IN VIVO ACYLATION FUNCTION” (The University of Tokyo, priority 2014, published 2017).

Columns and labels:
Format in all cases: cell-based, human
MCF7 cells [1] = test: Intracellular localization of FITC compounds, fluorescence microscope, MCF7 cells
Procedure: After compounds having FITC were added to the cells adhering on a glass coverslip, the cells were cultured, washed with PBS, fixed with 3.7% formaldehyde for 10 minutes, and washed with PBS twice.

MCF7 cells [2] = test: Protein acetylation levels in treated MCF7 cells (chromosome and cytoplasm fractions), western blotting; settings: FIG. 6 comparison
Procedure: (§1) Hela cells and MCF7 cells were cultured using Dulbecco's modified Eagle's Medium (DMEM) media supplemented with 10% fetal bovine serum, 100 U/ml of penicillin, and 100 U/ml of streptomycin. The cells were cultured at 37° C. in the presence of 5% CO2.
(§2) The cell fractionation was carried out as follows. Approximately 10^6 cells were detached from a culture dish by a trypsin treatment. After washed with PBS, the cell pellets were suspended in a cooled, cell lysis buffer [50 mM Tris (pH=7.5), 300 mM NaCl, 0.3% Triton X-100, protease inhibitor cocktail, and 1 mM PMSF], and placed on ice for 30 minutes. After the centrifugation (4° C., 1500 rpm, 2 minutes), the supernatant was collected as a cytoplasm fraction. Meanwhile, the pellets were suspended in a cell lysis buffer containing 2 mM MgCl2 and Benzonase (Novagen, 71206), and placed on ice for 30 minutes. Then, 4 mM EDTA was added thereto to stop the reaction. After the centrifugation (4° C., 15000 rpm, 15 minutes), the supernatant was collected as a chromosome fraction.
(§3) Proteins were separated on a 4-20% SDS-PAGE gel, and transferred to a PVDF membrane, followed by blocking with 5% skim milk suspended in TBST for the reaction between the PVDF membrane and primary antibodies. The primary antibodies used were as follows. Anti-Histone H3 (acetyl K122) antibody (ab33309, Abcam), Acetylated-Lysine antibody (#9441, Cell Signaling), Anti-Histone H3 (acetyl K56) antibody (ab76307, Abcam), Anti-acetyl Histone H3 (Lys115) (#07-934, Millipore), Anti-P53 (DO-1) (sc-126, Santa cruz), Anti-Histone H3 (acetyl K9) antibody (ab4441, Abcam), Anti-Histone H3 (acetyl K14) antibody (ab52946, Abcam), Anti-Acetyl-Histone H4 (Ac-Lys16) (H9164, Sigma), Anti-Acetyl-Histone H4 (Ac-Lys5) (SAB4500307, Sigma), anti-acetyl tubulin (T6793, Sigma), Anti-p21/WAF1/Cip1 Antibody (05-655, Millipore), Anti-p27 (Kip1) (04-240, Millipore). […]

Hela cells = test: Protein acetylation levels in treated HeLa cells (chromosome and cytoplasm fractions), western blotting; settings: FIG. 6 comparison
Procedure: as §1, §2, §3

hTERT RPE-1 cells = test: Protein acetylation levels in treated hTERT RPE-1 normal cells, western blotting; settings: FIG. 6 comparison
Procedure: as §2
Proteins were separated on a 4-20% SDS-PAGE gel, and transferred to a PVDF membrane, followed by blocking with 5% skim milk suspended in TBST for the reaction between the PVDF membrane and primary antibodies. The primary antibodies used were as follows. Anti-Histone H3 (acetyl K122) antibody (ab33309, Abcam), Acetylated-Lysine antibody (#9441, Cell Signaling), Anti-Histone H3 (acetyl K56) antibody (ab76307, Abcam), Anti-acetyl Histone H3 (Lys115) (#07-934, Millipore), Anti-P53 (DO-1) (sc-126, Santa cruz), Anti-Histone H3 (acetyl K9) antibody (ab4441, Abcam), Anti-Histone H3 (acetyl K14) antibody (ab52946, Abcam), Anti-Acetyl-Histone H4 (Ac-Lys16) (H9164, Sigma), Anti-Acetyl-Histone H4 (Ac-Lys5) (SAB4500307, Sigma), anti-acetyl tubulin (T6793, Sigma), Anti-p21/WAF1/Cip1 Antibody (05-655, Millipore), Anti-p27 (Kip1) (04-240, Millipore). After washing with TBST, the PVDF membrane was treated with a chemilluminescent detection reagent Luminata Forte Western HRP Substrate (Millipore), and the detection was performed using ImageQuant LAS 4000 (GE healthcare life sciences).
MCF7 cells, HeLa cells, and hTERT RPE-1 (hereinafter, RPE-1) cells which are normal cells were treated with an HDAC inhibitor (SAHA). […] On the other hand, there was no change in the acetylation of K56 present in the H3 globular region (FIG. 6).

CC(=O)N(OCc1cn(CCOCCOCCOc2cc(C(=O)NCC(=O)N[C@@H](CCCNC(=N)N)C(=O)NC(CCCNC(=N)N)C(=O)N[C@@H](CCCNC(=N)N)C(=O)NC(CCCNC(=N)N)C(=O)N[C@@H](CCCNC(=N)N)C(=O)NC(CCCNC(=N)N)C(=O)N[C@@H](CCCNC(=N)N)C(=O)NC(CCCNC(=N)N)C(N)=O)cc(OCCOCCOCCn3cc(CON(C(C)=O)C(C)=O)nn3)c2OCCOCCOCCn2cc(CON(C(C)=O)C(C)=O)nn2)nn1)C(C)=O (stereo partly shown) [Compound 3NMD-8R]
intracellular localization (FITC signal) (MCF7 cells [1]): successfully localized in the nucleus and the chromosomes

O=C(CCCCCCC(=O)Nc1ccccc1)NO [SAHA]
acetylation of K56, H3 globular region (MCF7 cells [2]): no change
acetylations of lysines in the tail regions of histones H3 and H4 (MCF7 cells [2]): significantly enhanced
tubulin acetylation in the cytoplasm (MCF7 cells [2]): significantly enhanced
acetylation of K56, H3 globular region (Hela cells): no change
acetylations of lysines in the tail regions of histones H3 and H4 (Hela cells): significantly enhanced
tubulin acetylation in the cytoplasm (Hela cells): significantly enhanced
acetylation of K56, H3 globular region (hTERT RPE-1 cells): no change
acetylations of lysines in the tail regions of histones H3 and H4 (hTERT RPE-1 cells): significantly enhanced
tubulin acetylation in the cytoplasm (hTERT RPE-1 cells): significantly enhanced
